The source of these data is patent publication US20250090510A1, “eIF4G1-eIF1 INHIBITORS AND USE THEREOF” (YEDA RESEARCH AND DEVELOPMENT CO. LTD., priority 2022, published 2025).

The target in one experiment is T1, eIF4E-eIF4G1 complex (Homo sapiens, UniProt Q04637).
T1 construct: co-immunoprecipitation of endogenous eIF4G1 in HEK293T cells expressing HA-eIF1 or HA-eIF4E was performed; endogenous in cells; host or cells: HEK293T (eIF4G1 endogenous; HA-eIF4E transfected)
Nature of the experiment: Co-immunoprecipitation of endogenous eIF4G1 with HA-eIF4E. The format is cell-based. Conditions: ER stress, Thapsigargin 1 μM, 1 hour. Here is the method: (§1) FIGS. 2A-C: The effect of i14G1-10 and i14G1-12 on eIF1-eIF4G1 and eIF4E-eIF4G1 complexes. (2A-B) HA-eIF1 and HA-eIF4E were each transfected into HEK293T cells and 48 h after transfection cells were treated with DMSO or i14G1-10 (2A) or i14G1-12 (2B) for 4 h, followed by immunoprecipitation of HA-eIF1 or HA-eIF4E using anti-HA-agarose beads. Western blot was run to check co-immunoprecipitation of endogenous eIF4G1 with HA-eIF1 or HA-eIF4E. The graphs represent the co-immunoprecipitation of eIF4G1 with HA-eIF1 (right) or HA-eIF4E (left). Co—IP data shown as mean±SEM of 4-7 independent experiments. The asterisks denote statistically significant difference compared to DMSO, according to Student's t-tests (one-tailed, paired). *p<0.05. (2C) HEK293T cells were treated with DMSO, i14G1-10, or i14G1-12 for 4 h, followed by cell lysis. Respective cell lysates were incubated with cap analog (γ-Aminohexyl-m7GTP) beads for 2 h to precipitate bound eIF4E. Western blot was performed to check co-precipitation of eIF4G1 along with eIF4E on the cap-analog beads. The graph represents the binding fraction of eIF4G1 and eIF4E to the cap-analog beads (mean±SEM) with DMSO (black), i14G1-10 (blue), and i14G1-12 (red), n=6. The asterisks denote statistically significant difference compared to DMSO, according to Student's t-tests (one-tailed, paired). *p<0.05; **p<0.01.
(§2) Co-immunoprecipitation. HEK293T cells were transfected with 5 μg of HA-eIF1 or HA-eIF4E plasmids along with 10 ng GFP plasmid to check for transfection efficiency using Jetprime reagent as per manufacturer's protocol. After 48 h, HA-eIF1 and HA-eIF4E expressing HEK293T cells were incubated with DMSO, i14G1-10 (20 μM), and […] (10 μM). 4 h later, cells were lysed using IP buffer (20 mM Tris pH8, 125 mM NaCl, 10% glycerol, 50 mM NaF, 1 mM […], 0.5% NP-40, and 0.2 mM EDTA) supplemented with fresh protease inhibitor cocktail (1:100) and PMSF 200 μM (1:100). Protein extract was taken for immunoprecipitation using either monoclonal anti-HA-agarose antibody (Sigma) or control IgG antibody in IP buffer, at 4° C. for 2 hours. […]

In a further experiment the target is T2, eIF1-eIF4G1 complex (Homo sapiens, UniProt Q04637).
T2 construct: co-immunoprecipitation of endogenous eIF4G1 in HEK293T cells expressing HA-eIF1 or HA-eIF4E was performed; endogenous in cells; host or cells: HEK293T (eIF4G1 endogenous; HA-eIF1 transfected)
The experiment in a line: Co-immunoprecipitation of endogenous eIF4G1 with HA-eIF1. It is filed as cell-based. Conditions: ER stress, Thapsigargin 1 μM, 1 hour. The method, then: as §1, §2

The test system of experiment [1] is leaky scanning from cap-proximal AUG in HEK293T cells. The experiment in a line: Leaky scanning GFP reporter with cap-proximal upstream AUG, western blot. As to conditions: upstream AUG with 16 nt 5′UTR. The format is cell-based, human. An excerpt: FIGS. 1A-G: Identification and initial characterization of eIF1-eIF4G1 inhibitors using a high-throughput drug screen (HTS). (1A) A flowchart describing the steps of the recombinant eIF1-eIF4G1 split-RL HTS. (1B) Selection of drugs that inhibit leaky scanning. HEK293T cells were transfected with a short 5′UTR bearing GFP reporter gene described on the top, treated with the indicated HTS hits, and then analyzed by western blot with GFP antibody. US and DS denote upstream and downstream AUG initiation sites, respectively. (1C) A graph showing the change in the ratio of the upstream and downstream AUG following treatment with the indicated drugs. (1D) The chemical structure of the eIF1-eIF4G1 inhibitors, i14G1-10 and i14G1-12. (1E) His-tagged eIF4G1 and His-tagged eIF1 were expressed in BL21 bacteria and purified using nickel NTA beads. Purified His-tagged eIF4G1 and His-tagged eIF1 were incubated with the indicated doses of either i14G1-10 (0-256 μM) or i14G1-12 (0-256 μM) for 5 minutes, followed by fluorescence measurement. For eIF4G1 excitation was at 280 nm and emission was at 350 nm. For eIF1 excitation was at 274 nm and emission was at 304 nm. The data shown represent three independent replicates. IC50 was calculated using Graphpad prism 9. (1F-1G) Western blots of GST pull down. […]
To address the functional significance of the temporal eIF1-eIF4G1 interaction, the inventors set out to develop pharmacological tools against this complex. To this end, the split-Renilla luciferase (RL) complementation assay previously found to be an efficient readout of eIF1 and eIF4G1 interaction in mammalian cells and a highly sensitive and powerful approach for the identification of protein-protein inhibitors was used. […] As knockdown of either eIF1 or eIF4G1 and interference with eIF1-eIF4G1 interaction led to the arrest of leaky scanning from cap-proximal AUG, the selected compounds were analyzed for their effect on initiation from cap-proximal AUG. […]
In general terms: A western blot detects proteins with antibodies after separation by electrophoresis.

T2 sequence (Q04637 whole entry, one chain of several): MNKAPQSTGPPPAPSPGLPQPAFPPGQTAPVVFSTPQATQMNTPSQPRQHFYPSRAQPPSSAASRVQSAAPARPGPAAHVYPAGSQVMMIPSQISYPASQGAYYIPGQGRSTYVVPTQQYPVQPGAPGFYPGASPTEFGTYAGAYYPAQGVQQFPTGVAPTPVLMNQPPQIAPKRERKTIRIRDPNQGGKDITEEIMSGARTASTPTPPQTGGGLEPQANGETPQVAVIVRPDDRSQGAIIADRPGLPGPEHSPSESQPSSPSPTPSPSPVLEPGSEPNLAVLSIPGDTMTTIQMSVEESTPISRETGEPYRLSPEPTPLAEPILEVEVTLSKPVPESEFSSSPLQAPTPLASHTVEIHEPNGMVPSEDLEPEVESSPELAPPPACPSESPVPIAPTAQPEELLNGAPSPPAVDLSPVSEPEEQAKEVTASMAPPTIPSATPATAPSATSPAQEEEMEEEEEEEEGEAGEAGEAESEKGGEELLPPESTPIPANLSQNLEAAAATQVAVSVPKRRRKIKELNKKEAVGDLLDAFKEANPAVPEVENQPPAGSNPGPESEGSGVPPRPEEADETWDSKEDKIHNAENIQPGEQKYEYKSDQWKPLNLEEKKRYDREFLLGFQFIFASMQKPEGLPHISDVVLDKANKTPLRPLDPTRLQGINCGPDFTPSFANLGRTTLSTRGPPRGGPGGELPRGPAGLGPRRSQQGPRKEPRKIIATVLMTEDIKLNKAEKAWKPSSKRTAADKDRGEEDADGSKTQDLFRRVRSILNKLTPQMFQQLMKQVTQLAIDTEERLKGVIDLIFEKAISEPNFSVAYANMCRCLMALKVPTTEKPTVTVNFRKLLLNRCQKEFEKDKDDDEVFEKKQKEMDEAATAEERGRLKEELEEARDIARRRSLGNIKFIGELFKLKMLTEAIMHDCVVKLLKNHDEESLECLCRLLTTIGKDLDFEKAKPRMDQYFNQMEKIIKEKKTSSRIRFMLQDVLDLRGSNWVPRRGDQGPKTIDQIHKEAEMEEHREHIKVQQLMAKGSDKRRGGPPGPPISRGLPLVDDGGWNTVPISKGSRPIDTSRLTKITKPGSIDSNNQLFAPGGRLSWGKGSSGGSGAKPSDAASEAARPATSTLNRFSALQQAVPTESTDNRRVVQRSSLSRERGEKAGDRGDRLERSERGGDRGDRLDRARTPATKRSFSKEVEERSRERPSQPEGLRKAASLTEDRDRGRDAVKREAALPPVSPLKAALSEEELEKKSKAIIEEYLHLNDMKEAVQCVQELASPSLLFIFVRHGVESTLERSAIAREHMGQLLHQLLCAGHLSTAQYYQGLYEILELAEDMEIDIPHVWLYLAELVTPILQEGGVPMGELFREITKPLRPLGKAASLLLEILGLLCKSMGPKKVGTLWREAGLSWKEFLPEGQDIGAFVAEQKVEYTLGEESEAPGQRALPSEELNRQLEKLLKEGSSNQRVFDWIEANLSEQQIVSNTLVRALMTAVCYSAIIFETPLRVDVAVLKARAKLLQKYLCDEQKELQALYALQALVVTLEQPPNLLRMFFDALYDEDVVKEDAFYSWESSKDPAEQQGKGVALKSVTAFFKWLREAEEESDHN
T1 sequence (Q04637 whole entry): as the sequence (Q04637 whole entry, one chain of several) above
T1 sequence (P06730 whole entry partner): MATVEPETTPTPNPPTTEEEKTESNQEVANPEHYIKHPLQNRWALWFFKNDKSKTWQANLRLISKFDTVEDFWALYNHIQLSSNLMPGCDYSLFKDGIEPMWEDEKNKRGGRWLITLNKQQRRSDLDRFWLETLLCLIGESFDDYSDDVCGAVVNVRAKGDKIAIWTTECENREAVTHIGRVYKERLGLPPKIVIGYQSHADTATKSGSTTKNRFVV

As for `C/C=C(/C)C(=O)O[C@H]1C(C)=C2[C@H]([C@@H]1OC(=O)CCCCCCC)[C@@](C)(OC(C)=O)C[C@H](OC(=O)CCC)[C@@]1(O)[C@H]2OC(=O)[C@@]1(C)O` [Thapsigargin, reference compound], at eIF4E-eIF4G1 complex, the “level of co-precipitated eIF4G1 with HA-eIF4E” value is recorded as “no significant change”. For the same compound, the “reduction of co-precipitated eIF4G1 with HA-eIF1” value at eIF1-eIF4G1 complex came to 50%.
With `Cc1ccc(/C(=C\C=C(C#N)C#N)Sc2nc3ccccc3s2)cc1` [i14G1-11], in experiment [1], the “upstream to downstream AUG ratio (leaky scanning)” value was “selectively changed the upstream to downstream ratio by inhibiting leaky scanning from the cap-proximal AUG”.
